Experimental data reported in patent publication US20220064105A1, “CRYSTALLINE EDG-2 RECEPTOR ANTAGONIST AND METHODS OF MAKING” (Sanofi, priority 2020, published 2022).

Tests used:
Type in all cases: physicochemical
[1] = Physical stability of solid state forms at 80° C./75% RH, by FTIR; conditions: 1 week (7 days), open glass vials
Protocol: The physical stability of Forms 1, 2, and 3 was investigated at 80° C./75% RH in order to determine if interconversion was observed. The samples were examined by FTIR after stressing 1 week in open glass vials.

[2] = Solubility of polymorphs at pH 7.4 in phosphate buffer at 25° C.; conditions: pH 7.4 phosphate buffer
Protocol: The solubility of the different polymorphs was determined at pH 7.4 in phosphate buffer at 25° C. Samples were analyzed as a function of time for each form to determine the equilibrium values. The residual solids from each sample were analyzed to verify that the form was unchanged during the experiment. The concentration (mg/mL) versus time data is listed below for each form: […]

[3] = Dynamic vapor sorption (DVS); conditions: 25° C.
Protocol: Moisture sorption/desorption isotherms are recorded on a DVS-1 from SURFACE MEASUREMENT SYSTEMS. Two cycles are run at 25° C., in which the Relative Humidity (RH) is stepped from 0 to 95% and back to 0%. The data is evaluated with the software DVSWin V. 2.15.

[4] = Slurry stability study at room temperature (25° C.), 4 weeks, resulting form by FTIR; conditions: for Final form after slurry: 25° C., 4 weeks, FTIR
Protocol: Slurry stability Maturation studies were initially conducted for the purpose of identifying the most […] stable form at room temperature (25° C.).
In this set of experiments, both the individual forms and mixtures of forms were slurried in several solvents for 4 weeks, then filtered and analyzed to determine the resulting form. The first set of experiments included pure Form 1, Form 2, Form 3, and mixtures of these forms in equal amounts. The solvents included methanol, ethyl acetate, MEK, and methyl THF in order to investigate a range of solvent polarity. Additional experiments were conducted with a mixture of Form 1 and Form 4 in MEK and methanol.
Analysis was performed by FTIR due to ease of analysis for small quantities. It is interesting to note that the acid carbonyl is shifted to a different location for each polymorph. The results for the first set of experiments are listed below, comparing the starting form with the final form.

[5] = Slurry conversion studies at 40-70° C. with Forms 1 and 2
Protocol: Slurry conversation studies were also conducted at 40-70° C. with Forms 1 and 2 to determine a transition temperature between the forms. A mixture of Form 1 and Form 2 at a (1:1 ratio) was slurried at 40° C., 50° C., 60° C., and 70° C. in two different solvents at each temperature and then analyzed to determine the direction of transformation. At 40° C. and 50° C., Methanol and MEK were used. At 60° C. and 70° C. MEK and 1-Pentanol were used.

## COc1ccc(C(=O)NC2(C(=O)O)Cc3ccccc3C2)cc1OCCc1cccc(C)c1 [Form 1, 2-(4-methoxy-3-(3-methylphenethoxy)benzamido)-2,3-dihydro-1H-indene-2-carboxylic acid]
[1]
  Change in FTIR spectrum after storage: unchanged FTIR
[2]; 1 hr
  Concentration (solubility): 42 µg/mL
[2]; 2 hr
  Concentration (solubility): 41 µg/mL
[2]; 3 hr
  Concentration (solubility): 42 µg/mL
[2]; 24 hr
  Concentration (equilibrium solubility): 42 µg/mL
[3]
  Reversible water uptake: less than 1%
[4]; room temperature (25° C.), from slurry data set
  Relative stability of the crystal forms: most stable form
[4]; slurried in MEK
  Final form after slurry: Form 1
[4]; slurried in ethyl acetate
  Final form after slurry: Form 1
[4]; slurried in methanol
  Final form after slurry: Form 1
[4]; slurried in methyl THF
  Final form after slurry: Form 1
[5]; slurried in 1-pentanol at 60° C.
  Resulting form after slurry: converts to crystalline Form 2
[5]; slurried in 1-pentanol at 70° C.
  Resulting form after slurry: converts to crystalline Form 2
[5]; slurried in MEK at 60° C.
  Resulting form after slurry: converts to crystalline Form 2
[5]; slurried in MEK at 70° C.
  Resulting form after slurry: converts to crystalline Form 2
